# Tests used:
# [1] = limits its ability to naturally cross the blood brain barrier; cited from earlier work
# [2] = system: brain injured animals; assay: Barnes Circular Maze, cognitive outcome after brain injury; assay type: in vivo
# Excerpt: (§1) A number of commercially synthesized substance P receptor antagonists are currently available from standard scientific chemical suppliers, as is apparent form Tables 1, 2, and 3. We chose to use the compound N-acetyl-L-tryptophan based on its low lipid solubility that limits its ability to naturally cross the blood brain barrier and the fact that it is relatively inexpensive.
# [3] = system: brain injured animals; assay: otarod test, motor outcome after brain injury; assay type: in vivo
# Excerpt: as §1
# [4] = system: brain injured animals; assay: brain water accumulation (cerebral oedema) after injury; assay type: in vivo; settings: at 24 hours after injury, compared to vehicle treated controls
# Protocol: (§2) This was consistent with the observation that N-acetyl-L-tryptophan reduced brain penetration of Evans blue at 5 hours after injury: the time associated with maximum blood brain barrier permeability and reduced vasogenic oedema formation.
# [5] = system: blood brain barrier permeability; assay: brain penetration of Evans blue after injury; assay type: in vivo; settings: at 5 hours after injury (time of maximum blood brain barrier permeability)
# Protocol: as §2
# [6] = intravenous 246 mg/kg (saline vehicle) at 30 minutes after brain injury, apparent at 24 hours, persisted for 14 day assessment period, vs vehicle
compound,measurement,setting,value
CC(=O)N[C@@H](Cc1c[nH]c2ccccc12)C(=O)O [N-acetyl-L-tryptophan],lipid solubility,[1],low
same,cognitive outcome of brain injured animals,[2]; 24.6 mg/kg,significantly improved
same,cognitive outcome as assessed by the Barnes Circular Maze,[2]; [6],significant improvement
same,motor outcome,[3]; 24.6 mg/kg,less of a beneficial effect
same,motor outcome as assessed by the otarod test,[3]; [6],significant improvement
same,brain water accumulation (i.e. cerebral oedema),[4],significant reduction
same,brain penetration of Evans blue,[5],reduced
